The record followed here is US20210038607A1, “OXADIAZOLYLTHIOPHENE DERIVATIVES USEFUL AS HISTONE DEACETYLASE INHIBITORS” (Karus Therapeutics Limited, priority 2018, published 2021).

Assay [1] has as its target T1, Human HDAC5 (Homo sapiens, UniProt Q9UQL6).
T1 construct: full length with C-terminal His tag, MW=51.1 kDa; His (C); host or cells: baculovirus expression system
Nature of the assay: HDAC5 biochemical assay, class IIa-specific substrate. The following applies: read-out: HDAC Isoform IC50 (nM) 5. The method in brief: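 Two-step fluorogenic read-out: deacetylated trifluoroacetyl-lysine AMC substrate (50 μM) digested by developer, measured at Ex/Em 360/460. Deacetylation step: 0.05 ng/ul His-tagged full-length baculoviral enzyme with compound, 30 min, room temperature, pH 8.0 Tris with 1 mg/mL BSA and 1% DMSO.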

In assay [2] the target is T2, Recombinant human HDAC6 (Homo sapiens, UniProt Q9UBN7).
T2 construct: full length, MW=159 kDa; GST (N); host or cells: Sf9 insect cells (baculovirus)
T2 sequence (Q9UBN7 1-1215): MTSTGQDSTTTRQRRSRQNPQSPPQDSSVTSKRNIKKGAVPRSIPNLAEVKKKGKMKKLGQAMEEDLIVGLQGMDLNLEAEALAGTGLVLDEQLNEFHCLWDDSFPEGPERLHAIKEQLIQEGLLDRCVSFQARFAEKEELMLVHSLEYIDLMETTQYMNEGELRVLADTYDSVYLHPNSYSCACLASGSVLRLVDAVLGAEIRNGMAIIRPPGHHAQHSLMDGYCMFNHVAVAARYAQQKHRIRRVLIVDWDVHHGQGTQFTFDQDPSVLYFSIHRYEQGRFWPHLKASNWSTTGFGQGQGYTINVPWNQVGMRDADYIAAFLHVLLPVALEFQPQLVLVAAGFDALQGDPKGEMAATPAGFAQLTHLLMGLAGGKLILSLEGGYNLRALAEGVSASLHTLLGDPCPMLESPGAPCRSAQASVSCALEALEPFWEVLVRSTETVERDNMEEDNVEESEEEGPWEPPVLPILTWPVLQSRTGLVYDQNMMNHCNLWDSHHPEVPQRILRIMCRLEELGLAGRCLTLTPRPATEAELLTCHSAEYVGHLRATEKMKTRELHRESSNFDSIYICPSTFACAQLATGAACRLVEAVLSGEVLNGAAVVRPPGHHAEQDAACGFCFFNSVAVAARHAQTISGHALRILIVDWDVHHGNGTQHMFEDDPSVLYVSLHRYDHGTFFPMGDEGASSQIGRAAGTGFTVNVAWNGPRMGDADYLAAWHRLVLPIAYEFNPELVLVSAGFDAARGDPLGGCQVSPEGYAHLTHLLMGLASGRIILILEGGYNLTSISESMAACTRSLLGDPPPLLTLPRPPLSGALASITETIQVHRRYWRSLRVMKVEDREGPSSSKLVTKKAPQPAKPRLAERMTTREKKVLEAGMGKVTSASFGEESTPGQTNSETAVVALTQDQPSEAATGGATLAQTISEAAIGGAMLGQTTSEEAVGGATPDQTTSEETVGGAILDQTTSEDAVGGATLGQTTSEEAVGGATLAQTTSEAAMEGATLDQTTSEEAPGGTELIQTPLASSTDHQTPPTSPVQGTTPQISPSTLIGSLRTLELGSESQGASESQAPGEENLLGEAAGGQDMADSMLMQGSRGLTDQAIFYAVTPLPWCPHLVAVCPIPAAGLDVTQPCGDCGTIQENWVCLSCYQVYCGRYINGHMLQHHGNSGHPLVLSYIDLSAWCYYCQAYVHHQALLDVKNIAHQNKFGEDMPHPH
Nature of the assay: HDAC6 biochemical assay, AMC-labeled peptide substrate. The following applies: HDAC6; read-out: HDAC Isoform IC50 (nM) 6. The method in brief:
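Two-step fluorogenic read-out: enzyme deacetylates 50 μM RHKK(Ac)AMC for 1 h at 30° C in pH 8.0 Tris buffer with BSA and 1% DMSO, then developer cleavage gives signal at Ex 360/Em 460. Enzyme: 0.3 ng/ul recombinant full-length human HDAC6, GST-tagged, Sf9-expressed.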

The target of assay [3] is T3, Human HDAC7 (Homo sapiens, UniProt Q8WUI4).
T3 construct: (a.a. 518-end) with N-terminal GST tag; GST (N); host or cells: baculovirus expression system
T3 sequence (Q8WUI4 518-952 limits assumed): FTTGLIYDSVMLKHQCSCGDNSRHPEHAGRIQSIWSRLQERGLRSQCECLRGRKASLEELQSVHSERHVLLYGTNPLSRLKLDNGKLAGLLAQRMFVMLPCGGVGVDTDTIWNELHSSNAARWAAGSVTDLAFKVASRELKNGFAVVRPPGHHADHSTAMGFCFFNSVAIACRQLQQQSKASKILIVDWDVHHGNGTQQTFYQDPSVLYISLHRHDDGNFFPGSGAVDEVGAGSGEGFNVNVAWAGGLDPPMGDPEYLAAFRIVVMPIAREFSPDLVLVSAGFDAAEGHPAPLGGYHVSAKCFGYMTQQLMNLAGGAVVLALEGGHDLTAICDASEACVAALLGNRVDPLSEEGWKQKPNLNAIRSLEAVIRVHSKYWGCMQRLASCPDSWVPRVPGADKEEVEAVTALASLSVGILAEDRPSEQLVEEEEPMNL
The experiment in a line: HDAC7 biochemical assay, class IIa-specific substrate. Conditions: read-out: HDAC Isoform IC50 (nM) 7. The method in brief:
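Two-step fluorogenic readout: class IIa-selective trifluoroacetyl-lysine AMC substrate (50 μM) deacetylated by N-terminal GST-HDAC7 fragment (0.001 ng/ul), then digested by developer, Ex/Em 360/460. Reaction: 30 min, room temperature, Tris-HCl pH 8.0, NaCl/KCl/MgCl2, 1 mg/mL BSA, 1% DMSO.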

T1 sequence (Q9UQL6 656-1122 limits assumed): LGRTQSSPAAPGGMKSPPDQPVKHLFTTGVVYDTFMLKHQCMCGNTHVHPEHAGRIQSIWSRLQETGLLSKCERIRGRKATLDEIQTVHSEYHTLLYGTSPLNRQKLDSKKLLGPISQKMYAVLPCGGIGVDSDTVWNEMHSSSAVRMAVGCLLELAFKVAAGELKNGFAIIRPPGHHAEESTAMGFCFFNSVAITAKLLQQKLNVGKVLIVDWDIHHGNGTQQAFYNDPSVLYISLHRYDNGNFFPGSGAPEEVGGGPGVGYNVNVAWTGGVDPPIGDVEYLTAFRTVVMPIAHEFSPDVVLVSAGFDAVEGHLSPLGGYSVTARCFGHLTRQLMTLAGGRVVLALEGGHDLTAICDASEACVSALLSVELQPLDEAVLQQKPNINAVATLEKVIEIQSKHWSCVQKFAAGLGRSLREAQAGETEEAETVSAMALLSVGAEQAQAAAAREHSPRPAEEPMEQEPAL

For `CC(=O)Nc1cnnc(N(Cc2ccc(-c3noc(C(F)(F)F)n3)s2)c2cnccn2)c1` [Example FM, N-{6-[(Pyrazin-2-yl)({5-[5-(trifluoromethyl)-1,2,4-oxadiazol-3-yl]thiophen-2-yl}methyl)amino]pyridazin-4-yl}acetamide], the half-maximal inhibitory concentration (IC50) (as a rule, the midpoint of a concentration-inhibition curve) in assay [1] was ≤ 500 nM; in assay [2], ≤ 500 nM; in assay [3], ≤ 1000 nM.

For `FC(F)(F)c1nc(-c2ccc(CN(c3cnccn3)c3ccc(CN4CCOCC4)nn3)s2)no1` [Example FN, 6-[(Morpholin-4-yl)methyl]-N-(pyrazin-2-yl)-N-({5-[5-(trifluoromethyl)-1,2,4-oxadiazol-3-yl]thiophen-2-yl}methyl)pyridazin-3-amine], the half-inhibitory concentration (IC50) in assay [1] is ≤ 1000 nM; in assay [2], ≤ 500 nM; in assay [3], ≤ 1000 nM.

In the case of `[O-][S+]1CCN(Cc2ccc(N(Cc3ccc(-c4noc(C(F)(F)F)n4)s3)c3cnccn3)nn2)CC1` [Example FO, 4-({6-[(Pyrazin-2-yl)({5-[5-(trifluoromethyl)-1,2,4-oxadiazol-3-yl]thiophen-2-yl}methyl)amino]pyridazin-3-yl}methyl)-1lambda4-thiomorpholin-1-one], the results for the IC50 in assay [1], in assay [2] and in assay [3] were ≤ 1000 nM, ≤ 500 nM and ≤ 1000 nM, respectively.

Regarding `FC(F)(F)c1nc(-c2ccc(CN(c3cnccn3)c3cc(N4CCOCC4)cnn3)s2)no1` [Example FP, 5-(Morpholin-4-yl)-N-(pyrazin-2-yl)-N-({5-[5-(trifluoromethyl)-1,2,4-oxadiazol-3-yl]thiophen-2-yl}methyl)pyridazin-3-amine], the IC50 in assay [1] is ≤ 500 nM; in assay [2], ≤ 500 nM; in assay [3], ≤ 10000 nM.

For `FC(F)(F)c1nc(-c2ccc(CN(c3cnccn3)c3cc(N4CCCC4)cnn3)s2)no1` [Example FQ, N-(Pyrazin-2-yl)-5-(pyrrolidin-1-yl)-N-({5-[5-(trifluoromethyl)-1,2,4-oxadiazol-3-yl]thiophen-2-yl}methyl)pyridazin-3-amine], the IC50 in assay [1] is ≤ 1000 nM; in assay [2], ≤ 1000 nM; in assay [3] it was ≤ 10000 nM.

Take `O=C(c1ccc(N(Cc2ccc(-c3noc(C(F)(F)F)n3)s2)c2cnccn2)nn1)N1C[C@@H]2C[C@H]1C[S@@+]2[O-]` [Example FR, (1S,2R,4S)-5-{6-[(Pyrazin-2-yl)({5-[5-(trifluoromethyl)-1,2,4-oxadiazol-3-yl]thiophen-2-yl}methyl)amino]pyridazine-3-carbonyl}-2-thia-5-azabicyclo[2.2.1]heptan-2-ium-2-olate]: the half-maximal inhibitory concentration (IC50) in assay [1], in assay [2] and in assay [3] was ≤ 500 nM in each case.

With `O=C(c1cnnc(N(Cc2ccc(-c3noc(C(F)(F)F)n3)s2)c2cnccn2)c1)N1CCC1` [Example FS, 5-(Azetidine-1-carbonyl)-N-(pyrazin-2-yl)-N-({5-[5-(trifluoromethyl)-1,2,4-oxadiazol-3-yl]thiophen-2-yl}methyl)pyridazin-3-amine], the IC50 in assay [1] was ≤ 1000 nM; in assay [2], ≤ 500 nM; in assay [3], ≤ 1000 nM.

Turning to `O=C(c1cnnc(N(Cc2ccc(-c3noc(C(F)(F)F)n3)s2)c2cnccn2)c1)N1CC(F)(F)C1` [Example FT, 5-(3,3-Difluoroazetidine-1-carbonyl)-N-(pyrazin-2-yl)-N-({5-[5-(trifluoromethyl)-1,2,4-oxadiazol-3-yl]thiophen-2-yl}methyl)pyridazin-3-amine], the IC50 was ≤ 1000 nM in assay [1], ≤ 500 nM in assay [2] and ≤ 10000 nM in assay [3].

On to `O=C(c1cnnc(N(Cc2ccc(-c3noc(C(F)(F)F)n3)s2)c2cnccn2)c1)N1CC[S+]([O-])CC1` [Example FU, 4-{6-[(Pyrazin-2-yl)({5-[5-(trifluoromethyl)-1,2,4-oxadiazol-3-yl]thiophen-2-yl}methyl)amino]pyridazine-4-carbonyl}-1lambda4-thiomorpholin-1-one], for which the IC50 was ≤ 1000 nM in assay [1], ≤ 500 nM in assay [2] and ≤ 10000 nM in assay [3].

Regarding `O=C(c1cnnc(N(Cc2ccc(-c3noc(C(F)(F)F)n3)s2)c2cnccn2)c1)N1C[C@@H]2C[C@H]1CO2` [Example FV, 5-[(1S,4S)-2-Oxa-5-azabicyclo[2.2.1]heptane-5-carbonyl]-N-(pyrazin-2-yl)-N-({5-[5-(trifluoromethyl)-1,2,4-oxadiazol-3-yl]thiophen-2-yl}methyl)pyridazin-3-amine], the results for the IC50 in assay [1], in assay [2] and in assay [3] were ≤ 1000 nM, ≤ 500 nM and ≤ 10000 nM, respectively.

Consider `O=C(c1cnnc(N(Cc2ccc(-c3noc(C(F)(F)F)n3)s2)c2cnccn2)c1)N1C[C@H]2C[C@@H]1CO2` [Example FW, 5-[(1R,4R)-2-Oxa-5-azabicyclo[2.2.1]heptane-5-carbonyl]-N-(pyrazin-2-yl)-N-({5-[5-(trifluoromethyl)-1,2,4-oxadiazol-3-yl]thiophen-2-yl}methyl)pyridazin-3-amine], for which the figures for the IC50 in assay [1], in assay [2] and in assay [3] were ≤ 1000 nM, ≤ 500 nM and ≤ 10000 nM, respectively.

For `CN(C)C1CN(C(=O)c2cnnc(N(Cc3ccc(-c4noc(C(F)(F)F)n4)s3)c3cnccn3)c2)C1` [Example FX, 5-[3-(Dimethylamino)azetidine-1-carbonyl]-N-(pyrazin-2-yl)-N-({5-[5-(trifluoromethyl)-1,2,4-oxadiazol-3-yl]thiophen-2-yl}methyl)pyridazin-3-amine], the IC50 in assay [1] was ≤ 10000 nM; in assay [2], ≤ 500 nM; in assay [3], ≤ 1000 nM.

Regarding `O=C(c1cnnc(N(Cc2ccc(-c3noc(C(F)(F)F)n3)s2)c2cnccn2)c1)N1CCC(F)(F)CC1` [Example FY, 5-(4,4-Difluoropiperidine-1-carbonyl)-N-(pyrazin-2-yl)-N-({5-[5-(trifluoromethyl)-1,2,4-oxadiazol-3-yl]thiophen-2-yl}methyl)pyridazin-3-amine], the values for the IC50 in assay [1], in assay [2] and in assay [3] were ≤ 1000 nM, ≤ 500 nM and ≤ 10000 nM, respectively.

On to `O=C(c1cnnc(N(Cc2ccc(-c3noc(C(F)(F)F)n3)s2)c2cnccn2)c1)N1CC2(COC2)C1` [Example FZ, 5-{2-Oxa-6-azaspiro[3.3]heptane-6-carbonyl}-N-(pyrazin-2-yl)-N-({5-[5-(trifluoromethyl)-1,2,4-oxadiazol-3-yl]thiophen-2-yl}methyl)pyridazin-3-amine], for which the half-maximal inhibitory concentration (IC50) is ≤ 1000 nM in assay [1], ≤ 500 nM in assay [2] and ≤ 1000 nM in assay [3].
